According to patent US6384075B1, “Bicyclic amino derivatives and PGD2, antagonist containing them” (Shionogi & Co., Ltd., priority 1995, dated 2002):

Experiments:
PGD2 receptor = target: T1, PGD2 receptor (Homo sapiens, UniProt Q13258); test: Binding to PGD2 receptor ([3H]PGD2, human platelet membrane fraction); conditions: 5 nM [3H]PGD2, 4° C., 90 min, read-out: Activity (binding-inhibitory activity, concentration required for 50% inhibition, IC50)
T1 construct: Preparation of Human Platelet Membrane Fraction; from tissue; host or cells: human platelets (membrane fraction) from blood of healthy volunteers
T1 sequence (Q13258 1-359): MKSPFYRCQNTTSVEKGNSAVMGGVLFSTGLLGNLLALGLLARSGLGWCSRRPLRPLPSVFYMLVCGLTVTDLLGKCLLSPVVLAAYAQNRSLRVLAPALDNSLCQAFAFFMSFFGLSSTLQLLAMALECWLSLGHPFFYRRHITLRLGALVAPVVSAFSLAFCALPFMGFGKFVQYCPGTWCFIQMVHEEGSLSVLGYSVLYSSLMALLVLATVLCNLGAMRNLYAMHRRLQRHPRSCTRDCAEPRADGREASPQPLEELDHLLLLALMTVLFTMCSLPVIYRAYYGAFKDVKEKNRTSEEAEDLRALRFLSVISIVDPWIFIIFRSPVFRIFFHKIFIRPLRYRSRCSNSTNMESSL
Experimental: (1) Preparation of Human Platelet Membrane Fraction
Blood sample was obtained using a plastic syringe containing 3.8% sodium citrate from a venous of healthy volunteers (adult male and female), put into a plastic test tube and mixed gently by inversion. The sample was then centrifuged at 1800 rpm, 10 min at room temperature, and supernatant containing PRP (platelet rich plasma) was collected. The PRP was re-centrifuged at 2300 rpm, 22 min at room temperature to obtain platelets. The platelets were homogenized using a homogenizer (Ultra-Turrax) followed by centrifugation 3 times at 20,000 rpm, 10 min at 4° C. to obtain platelet membrane fraction. After protein determination, the membrane fraction was adjusted to 2 mg/ml and preserved in a refrigerator at […] until use.
(2) Binding to PGD2 Receptor
To a binding-reaction solution (50 mM Tris/HCl, pH 7.4, 5 mM MgCl2) (0.2 ml) were added human platelet membrane fraction (0.1 mg) and 5 nM [3H]PGD2 (115 Ci/mmol), and reacted at 4° C. for 90 min. After the reaction completed, the reaction mixture was filtered through the glass fiber filter paper, washed several times with cooled saline, and measured radioactivity retained on the filter paper. The specific binding was calculated by subtracting the non-specific binding (the binding in the presence of 10 μM PGD2) from the total binding. […]

[1] = tested on: nasal cavity resistance (nasal occlusion model); test: Nasal occlusion model: nasal cavity resistance after antigen (OVA) exposure in sensitized guinea pig; type: in vivo; conditions: 1 mg/kg (i.v.), 10 min before antigen exposure
Experimental: Experiment Using Nasal Occlusion Model
The method used for measuring the nasal cavity resistance and evaluating the anti-nasal occlusion using a guinea pig are described below.
A 1% ovalbumin (OVA) solution was treated with ultrasonic nebulizer to obtain an aerosol. Hartley male guinea pig was sensitized by inhaling twice the aerosol for 10 min at one-week interval. Seven-day after the sensitization, the guinea pig was exposed to an antigen to initiate the reaction. Then the trachea was incised under the anesthesia with pentobarbital (30 mg/kg, i.p.) and cannulas were inserted into the trachea at the pulmonary and nasal cavity sides. The canal inserted at the pulmonary side was connected with an artificial respirator that provides 4 ml air 60 times/min. After arresting the spontaneous respiration of a guinea pig with Garamin (2 mg/kg, i.v.), air was supplied to the snout side with an artificial respirator at the frequency of 70 times/min, and the flow rate of 4 ml air/time, and the atmospheric pressure required for the aeration was measured by the use of a transducer fitted at the branch. The measurement was used as a parameter of the nasal cavity resistance. The exposure of an antigen was carried out by generating aerosol of 3% OVA solution for 3 min between the respirator and nasal cavity cannula. The test drug was injected intravenously 10 min before the antigen exposure. […]

- IC50 (PGD2 receptor): 0.13 µM
SMILES: O=C(O)CCC/C=C\C[C@@H]1[C@H]2CC[C@H](C2)[C@H]1NS(=O)(=O)c1ccc2oc3ccccc3c2c1 [1a-2, (Z)-7-[(1S,2R,3R,4R)-3-(2-dibezofuryl)sulfonylaminobicyclo[2.2.1]hept-2-yl]-5-heptenoic acid]
- Inhibition Rate (%) of nasal cavity resistance (AUC 0-30 min vs vehicle) [1]: 82%
